Measurements reported in the NIST ThermoML archive (doi:10.1021/je5010824).
Numbers after ± are expanded uncertainties.

Legend:
[1] = Liquid; for mass density: 298.15 K, 101.33 kPa, Vibrating tube method; for vapor or sublimation pressure: Ebulliometric method (Recirculating still)
[2] = refractive index (Na D-line) (dimensionless); settings: 298.15 K; 101.33 kPa; Liquid; Standard Abbe refractometry

Structure (SMILES): CCC(O)CO (centres undefined) [1,2-butanediol]
- mass density [1]: 998.78 ± 1.1 kg/m3
- vapor or sublimation pressure ([1]; 392.06 K): 5.62 ± 0.27 kPa
- vapor or sublimation pressure ([1]; 397.24 K): 7.21 ± 0.27 kPa
- vapor or sublimation pressure ([1]; 402.31 K): 8.86 ± 0.27 kPa
- vapor or sublimation pressure ([1]; 405.41 K): 10 ± 0.33 kPa
- vapor or sublimation pressure ([1]; 406.54 K): 10.62 ± 0.28 kPa
- vapor or sublimation pressure ([1]; 412.23 K): 13.56 ± 0.28 kPa
- vapor or sublimation pressure ([1]; 417.66 K): 16.89 ± 0.29 kPa
- vapor or sublimation pressure ([1]; 422.15 K): 20 ± 0.4 kPa
- vapor or sublimation pressure ([1]; 422.48 K): 20.34 ± 0.31 kPa
- vapor or sublimation pressure ([1]; 427.21 K): 24.45 ± 0.32 kPa
- vapor or sublimation pressure ([1]; 432.29 K): 29.56 ± 0.34 kPa
- vapor or sublimation pressure ([1]; 437.41 K): 35.54 ± 0.36 kPa
- vapor or sublimation pressure ([1]; 440.83 K): 40 ± 0.62 kPa
- vapor or sublimation pressure ([1]; 442.77 K): 41.92 ± 0.4 kPa
- vapor or sublimation pressure ([1]; 447.52 K): 50.54 ± 0.46 kPa
- vapor or sublimation pressure ([1]; 452.13 K): 58.86 ± 0.48 kPa
- vapor or sublimation pressure ([1]; 457.24 K): 69.36 ± 0.53 kPa
- vapor or sublimation pressure ([1]; 462.57 K): 81.92 ± 0.58 kPa
- vapor or sublimation pressure ([1]; 466.64 K): 92.78 ± 0.62 kPa
- vapor or sublimation pressure ([1]; 469.71 K): 101.3 ± 2 kPa
- refractive index [2]: 1.4378 ± 0.0008

Structure (SMILES): OCCO [1,2-ethanediol]
- vapor or sublimation pressure ([1]; 406.1 K): 10 ± 0.34 kPa
- vapor or sublimation pressure ([1]; 423.29 K): 20 ± 0.49 kPa
- vapor or sublimation pressure ([1]; 442.17 K): 40 ± 0.86 kPa
- vapor or sublimation pressure ([1]; 470.4 K): 101.3 ± 2 kPa
- refractive index [2]: 1.431 ± 0.0007

Structure (SMILES): CC(O)CO (centres undefined) [1,2-propanediol]
- mass density [1]: 1031.9 ± 0.33 kg/m3
- vapor or sublimation pressure ([1]; 398.25 K): 10 ± 0.33 kPa
- vapor or sublimation pressure ([1]; 398.26 K): 10 ± 0.33 kPa
- vapor or sublimation pressure ([1]; 414.88 K): 20 ± 0.48 kPa
- vapor or sublimation pressure ([1]; 433.22 K): 40 ± 0.86 kPa
- vapor or sublimation pressure ([1]; 460.69 K): 101.3 ± 2 kPa
- refractive index [2]: 1.432 ± 0.0008
